Laboratory results: PubChem BioAssay AID179 (DTP/NCI, 2004)
Where “and” joins values, the source holds several entries; their conditions need not be identical. Identical values can stand only once. Calls of active or inactive are those of the source.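 The calls were made as follows: active = compounds giving half or more protection of infected cells from virus-caused growth loss, again on retest; inactive = the rest.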

Tested on: CEM cells HIV-1 protection, formazan growth assay
Assay: NCI AIDS Antiviral Assay
Details: for IC50: measured here: growth of uninfected CEM cells
Procedure, shortened: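 Screen of anti-HIV-1 activity in human CEM cells using a formazan-based growth measurement at five drug concentrations. Hits with 50% or greater protection were repeated, and confirmation required reproducible complete protection.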

| Compound | EC50 | IC50 | outcome |
| --- | --- | --- | --- |
| CCN(CC)CCn1nc(N)c2nc3ccccc3nc21 | > 200 µM | 107 µM |  |
| O=C(O)Cc1ccc(SSc2ccc(CC(=O)O)cc2)cc1 | 46.8 µM and 129 µM | 1120 µM and > 200 µM |  |
| CCSc1nc2c([nH]1)c(=S)n(C)c(=S)n2C | > 200 µM | 41.7 µM |  |
| OCC1CCCCN1Cc1nc2ccc(Cl)cc2[nH]1 (stereo unspecified) | > 200 µM | 195 µM |  |
| NS(=O)(=O)c1ccc(CNC(=O)c2ccccc2SC(=O)CCCCC[n+]2ccccc2)cc1 | 2.14 µM | 39.8 µM |  |
| CC(=O)Oc1c2c(c(CC=C(C)C)c3c1C(=O)C1=C[C@@H]4CC5C(C)(C)OC(C/C=C(/C)C(=O)O)(C4=O)[C@@]15O3)OC(C)(CCC=C(C)C)C=C2 (stereo partly specified) | > 2 µM | 0.324 µM |  |
| O=C1c2ccccc2-c2ccccc2C(=O)C1(Br)Br |  |  | inactive |
| CN(C(=O)C12C3(C(=O)O)C4C5(C(=O)O)C3C1(C(=O)O)C5C42C(=O)O)C(C)(C)C (stereo unspecified) | > 200 µM | > 200 µM |  |
| O=C(CBr)N1CCC2(CC1)SSC1(CCN(C(=O)CBr)CC1)S2 | > 200 µM | 0.575 µM |  |
| CCOC(=O)c1c(Sc2ccc([N+](=O)[O-])cc2[N+](=O)[O-])nc2c3ccccc3ccn12 | > 200 µM | > 200 µM |  |
| C=CC1=C(C)C2=NC1=CC1=NC(=CC3=C(C)C4=C(O)C(C(=O)O)C(=C5NC(=C2)C(C)C5CCC(=O)O)C4=N3)C(CC)=C1C (stereo unspecified) | > 39.8 µM | > 39.8 µM |  |
| COc1cc2c(c([N+](=O)[O-])c1)NC(=O)CS2 | > 200 µM | 79.4 µM |  |
| CCN1C(=O)C(N=[N+]=[N-])(c2ccccc2)C(=O)c2ccccc21 (stereo unspecified) | > 200 µM | > 200 µM |  |
| Cc1cn(C2OC(CO)CC2F)c(=O)[nH]c1=O (stereo unspecified) | > 646 µM | > 646 µM |  |
| C=CCOc1ccccc1N=N/C(C#N)=N\Nc1ccccc1OCC=C | > 200 µM | 110 µM |  |
| CC1(C)OC([C@H](O)CO)C([C@H]2NCCS2)O1 (stereo partly specified) | > 200 µM | > 200 µM |  |
| O=C1OC2(OC2c2ccccc2)c2ccccc21 (stereo unspecified) | > 200 µM | > 200 µM |  |
| COC(=O)c1ccccc1N(C(=O)c1ccccc1)c1ccccc1C |  |  | inactive |
| CN(C)CC/C(=N\Nc1ccc(Cl)cc1)c1ccccc1 |  |  | inactive |
| CC12CCC(C(Nc3cc(C(F)(F)F)cc(C(F)(F)F)c3)C1=O)C2(C)C (stereo unspecified) | > 200 µM | > 200 µM |  |
| CN(C)c1ccc(/C=C/c2ccc(/C=C/c3ccc(N(C)C)cc3)cc2)cc1 |  |  | inactive |

| Compound | EC50 | IC50 | outcome |
| --- | --- | --- | --- |
| O=[N+]([O-])c1cccc2c([As](=O)(O)O)cccc12 | > 200 µM | 91.2 µM |  |
| COc1cc(C(CN)N(C)C)cc(OC)c1OC (stereo unspecified) | > 200 µM | > 200 µM |  |
| O=C(Nc1ccc2c(O)cc(S(=O)(=O)O)cc2c1)Nc1ccc2c(O)c(N=Nc3ccc4cc(S(=O)(=O)O)ccc4c3)c(S(=O)(=O)O)cc2c1 |  |  | active |
| O=C(O)CC[n+]1ccccc1 | > 200 µM | > 200 µM |  |
| Clc1cccc(NC2=NCCN=C(Nc3cccc(Cl)c3Cl)SS2)c1Cl | > 200 µM | 21.4 µM |  |
| COc1cccc2c1OC1c3ccccc3OCC1C2 (stereo unspecified) | > 200 µM | 97.7 µM |  |
| CC(=O)NC(CCCCNC(=O)N(CCCl)N=O)C(=O)NCc1ccccc1 (stereo unspecified) | > 603 µM | 132 µM |  |
| c1ccc(C2=C(c3ccccc3)/N=N/C(c3ccccc3)=C(c3ccccc3)\N=N\2)cc1 | > 200 µM | > 200 µM |  |
| NCc1c(C(N)=O)ncn1Cc1ccccc1 |  |  | inactive |
| [B-][N+]1(C)CC[N+]([B-])(C)CC1 (stereo unspecified) | > 200 µM | > 200 µM |  |
| O=C(O)Cc1ccc(Nc2nc3ccccc3nc2C(=O)O)cc1 | > 200 µM | > 200 µM |  |
| Clc1ccc2sc3c(c2c1)CCNC3 |  |  | inactive |
| O=[N+]([O-])/C=C/c1cc2ccc3ccccc3c2[nH]1 | > 200 µM | 1.02 µM |  |
| CCOC(=O)c1cc(-c2ccc([N+](=O)[O-])cc2)c([N+](=O)[O-])[nH]1 | > 200 µM | 7.94 µM |  |
| Cn1c(=O)[nH]c2nccnc2c1=O | > 200 µM | > 200 µM |  |
| Cc1cc(-c2ccco2)c(C#N)c(=S)n1C1OC(CO)C(O)C(O)C1O (stereo unspecified) | > 200 µM | > 200 µM |  |
| CC(=O)C(N1CCCCC1)C(O)(C(F)(F)F)C(F)(F)F (stereo unspecified) | > 200 µM | 91.2 µM |  |
| CC(O)C(C(=O)O)N(CC1(O)OCC(O)C(O)C1O)N=O (stereo unspecified) |  |  | inactive |
| CN1C(=O)N(C)C(N2CCCC2)c2c1nc1ccccn1c2=O (stereo unspecified) | > 219 µM | 66.1 µM |  |
| COP(=O)(OC)/C(=C\c1cn(C(c2ccccc2)(c2ccccc2)c2ccccc2)cn1)NC(C)=O | > 200 µM | 83.2 µM |  |
| COC12CC(=O)C(C(C)=O)=C(O)C1(C)c1c(OC(C)=O)c(C)c(O)c(C(C)=O)c1O2 (stereo unspecified) | > 603 µM | 10.7 µM |  |
